Measurements as given in article PMC4730870 (Journal of natural products, 2015).

Test system: peritoneal macrophages
Assay: In vitro mammalian toxicity, MTT method
Format: cell-based, BALB/c mice
Conditions: CC50 against macrophages/IC50 against amastigotes

## C=CCc1ccc(Oc2cc([C@H](O)C=C)cc(OC)c2O)c(OC)c1 [Compound 3, 1-[(7R)-Hydroxy-8-propenyl]-3-[3′-methoxy-1′-(8′-propenyl)-phenoxy]-4-hydroxy-5-methoxybenzene]
  SI selectivity index (CC50 mammalian cells/IC50 Leishmania amastigotes): >2.9
